Assay results published in patent US20100087411A1, “SUBSTITUTED SAPOGENINS AND THEIR USE” (Phytopharm PLC, priority 2000, published 2010).

Each compound was assayed on m2 receptor (assay: Expression of m2 receptors on CHO cells transfected with DNA for the m2 receptor (tritiated QNB binding)). Settings: DMSO control, range of final concentrations.
Assay type: cell-based
Design: key: Active: “active” means increase over the control; Inactive: “inactive” means same effect as control
Text: Substituted sapogenins of the present invention have also been tested for activity in a number of in-vitro assays. The assays/experiments that were considered of key importance in determining possible activity in the elevation of membrane bound receptor numbers were as follows: • Chinese hamster ovary (CHO) cells transfected with the a DNA fragment coding for a muscarinic receptor. The cell line used for the majority of the experiments was a cell line expressing the m2 receptor. The methods and the results of these experiments are now described in turn.
The effects of various compounds on the expression of m2 receptors on CHO cells transfected with DNA for the m2 receptor were investigated. Receptor numbers were assayed using tritiated QNB binding and subtracting non-specific binding. Compounds were dissolved in DMSO and DMSO was used as a control. Compounds were tested at a range of final concentrations. Compounds were also tested in the presence and absence of tamoxifen to try to distinguish an oestrogen receptor mediated mechanism The results are summarised in the Table I below.

Row | SMILES | Effect on receptor expression
1 | C[C@@H]1CC[C@@]2(OC1)O[C@H]1C[C@H]3[C@@H]4CC[C@@H]5CC(F)(F)CC[C@]5(C)[C@H]4CC[C@]3(C)[C@H]1[C@@H]2C [3,3-difluoro-5β,20α,22α,25R-spirostane] | Active
2 | C[C@@H]1CC[C@@]2(OC1)O[C@H]1C[C@H]3[C@@H]4CC[C@@H]5C[C@H](N)CC[C@]5(C)[C@H]4CC[C@]3(C)[C@H]1[C@@H]2C [3α-amino-5β,20α,22α,25R-spirostane] | Active
3 | CC1CCC2(OC1)OC1CC3C4CCC5CC(N=[N+]=[N-])CCC5(C)C4CCC3(C)C1C2C (stereo not drawn) [3α-azido-5β,20α,22α,25R-spirostane] | Active
4 | C[C@@H]1CC[C@@]2(OC1)O[C@H]1C[C@H]3[C@@H]4CC[C@H]5C[C@H](F)CC[C@]5(C)[C@H]4CC[C@]3(C)[C@H]1[C@@H]2C [3α-fluoro-5α,20α,22α,25R-spirostane] | Inactive
5 | C[C@@H]1CC[C@@]2(OC1)O[C@H]1C[C@H]3[C@@H]4CC[C@@H]5C[C@H](NS(C)(=O)=O)CC[C@]5(C)[C@H]4CC[C@]3(C)[C@H]1[C@@H]2C [3α-methylsulphonylamino-5β,20α,22α,25R-spirostane] | Active
6 | C[C@@H]1CC[C@@]2(OC1)O[C@H]1C[C@H]3[C@@H]4CC[C@@H]5C[C@@H](F)CC[C@]5(C)[C@H]4CC[C@]3(C)[C@H]1[C@@H]2C [3β-fluoro-5β,20α,22α,25R-spirostane] | Active
7 | C[C@H]1[C@H]2[C@H](C[C@H]3[C@@H]4CC[C@@H]5C[C@@H](O)CC[C@]5(C)[C@H]4CC[C@]23C)O[C@]12CCC(C)(C)CO2 [25-methyl-5β,20α,22α-spirostane-3β-ol] | Active
